Assay results as given in the supplement of paper PMC10627819.

Columns and labels:
S. aureus DSM 20231 [1] = assay: fitness (endpoint OD595 vs no drug) (fraction); higher = more growth
Outline: (§1)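 Fitness expresses the optical density reached at the stationary-phase transition as a fraction of the robust mean of no-drug control wells. It is capped at 1. Measurements were OD595 every 30 min for 14 h at 37 °C after inoculation of 384-well plates at OD595 0.01 (30 µl, or 55 µl for S. pneumoniae), minus the first reading.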

S. aureus Newman [2] = assay: as above
Outline: as §1

S. pneumoniae D39V [3] = assay: as above
Outline: as §1

B. subtilis 168 = assay: Bliss interaction score (quartile over a dose matrix) (fitness difference); higher = more antagonism (negative = synergy)
Outline: (§2)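 Each OD595 reading at entry into stationary phase was scaled to the robust mean of the untreated wells on its plate, with a ceiling of 1. These ratios define fitness, and single-drug fitness was inferred from combinations. The Bliss score compares observed fitness with the product-based expectation and is reported as quartiles across all replicate types, technical, biological and donor/recipient.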

S. aureus DSM 20231 [4] = assay: as above
Outline: as §2

S. aureus Newman [5] = assay: as above
Outline: as §2

S. pneumoniae D39V [6] = assay: as above
Outline: as §2
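Wherever Bliss interaction score (quartile over a dose matrix) is given: first quartile when negative (synergy) and third quartile when positive (antagonism).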
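Wherever fitness (endpoint OD595 vs no drug) is given: OD595 on entry to stationary phase over no-drug wells; at most 1.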

CC1(C)S[C@@H]2[C@H](NC(=O)[C@H](N)c3ccc(O)cc3)C(=O)N2[C@H]1C(=O)O [Amoxicillin] + CO/N=C(\C(=O)N[C@@H]1C(=O)N2C(C(=O)O)=C(COC(C)=O)CS[C@H]12)c1csc(N)n1 [Cefotaxime]
fitness
Conditions	first compound 0.0008 µg/mL	first compound 0.0015 µg/mL	first compound 0.003 µg/mL	first compound 0.0625 µg/mL	first compound 0.125 µg/mL	first compound 0.25 µg/mL
S. aureus DSM 20231 [1], partner 0.039 µg/mL	–	–	–	0.465	0.283	0.128
S. aureus DSM 20231 [1], partner 0.078 µg/mL	–	–	–	0.47	0.403	0.103
S. aureus DSM 20231 [1], partner 0.156 µg/mL	–	–	–	0.464	0.221	0.0332
S. aureus DSM 20231 [1], partner 0.312 µg/mL	–	–	–	0.456	0.0746	0.0409
S. aureus Newman [2], partner 0.078 µg/mL	–	–	–	0.728	0.711	0.626
S. aureus Newman [2], partner 0.156 µg/mL	–	–	–	0.575	0.551	0.51
S. aureus Newman [2], partner 0.312 µg/mL	–	–	–	0.327	0.156	0.159
S. aureus Newman [2], partner 0.625 µg/mL	–	–	–	0.191	0.0751	0.13
S. aureus Newman [2], partner 1.25 µg/mL	–	–	–	0.0345	0.0453	0.0376
S. aureus Newman [2], partner 2.5 µg/mL	–	–	–	0.0349	0.0311	0.0239
S. pneumoniae D39V [3], partner 0.0018 µg/mL	0.993	0.998	0.977	–	–	–
S. pneumoniae D39V [3], partner 0.0035 µg/mL	0.986	0.967	0.889	–	–	–
S. pneumoniae D39V [3], partner 0.007 µg/mL	0.882	0.882	0.762	–	–	–

one replicate
Conditions	fitness
S. aureus DSM 20231 [1], first compound 0.5 µg/mL, partner 0.039 µg/mL	0.0334
S. aureus DSM 20231 [1], first compound 0.5 µg/mL, partner 0.078 µg/mL	0.0321
S. aureus DSM 20231 [1], first compound 0.5 µg/mL, partner 0.156 µg/mL	0.0325
S. aureus DSM 20231 [1], first compound 0.5 µg/mL, partner 0.312 µg/mL	0.0506
S. aureus Newman [2], first compound 0.0625 µg/mL, partner 0.039 µg/mL	0.709
S. aureus Newman [2], first compound 0.125 µg/mL, partner 0.039 µg/mL	0.736
S. aureus Newman [2], first compound 0.25 µg/mL, partner 0.039 µg/mL	0.749
S. pneumoniae D39V [3], first compound 0.006 µg/mL, partner 0.0018 µg/mL	0.457
S. pneumoniae D39V [3], first compound 0.006 µg/mL, partner 0.0035 µg/mL	0.344
S. pneumoniae D39V [3], first compound 0.006 µg/mL, partner 0.007 µg/mL	0.176

Conditions	Bliss interaction score
B. subtilis 168	0.0789
S. aureus DSM 20231 [4]	-0.14
S. aureus Newman [5]	-0.0401
S. pneumoniae D39V [6]	-0.0441
